The experiment deals with CK1δ (Homo sapiens, UniProt P48730). Kind of experiment: CK1δ kinase assay (Caliper LabChip electrophoretic separation of fluoresceinated peptide substrate and product). It counts as biochemical. As to conditions: 200 pM CK1δ, 50 μM ATP, 1.5 μM peptide, 22 hours at room temperature; read-out: CK1δ IC50 range. As for the experimental part:
CK1ε and CK1δ Kinase Assays
The kinase assay was performed in V-bottom 384-well plates. […] The reaction was incubated at room temperature for 22 hours and terminated by adding 45 μl of 35 mM EDTA to each sample. The reaction mixture was analyzed on the Caliper LABCHIP®3000 (Caliper, Hopkinton, Mass.) by electrophoretic separation of the unphosphorylated substrate and phosphorylated product. […] Compounds were dissolved at 10 mM in dimethylsulfoxide (DMSO) and evaluated at eleven concentrations. IC50 values were derived by non-linear regression analysis.

Chain of CK1δ (P48730 whole entry): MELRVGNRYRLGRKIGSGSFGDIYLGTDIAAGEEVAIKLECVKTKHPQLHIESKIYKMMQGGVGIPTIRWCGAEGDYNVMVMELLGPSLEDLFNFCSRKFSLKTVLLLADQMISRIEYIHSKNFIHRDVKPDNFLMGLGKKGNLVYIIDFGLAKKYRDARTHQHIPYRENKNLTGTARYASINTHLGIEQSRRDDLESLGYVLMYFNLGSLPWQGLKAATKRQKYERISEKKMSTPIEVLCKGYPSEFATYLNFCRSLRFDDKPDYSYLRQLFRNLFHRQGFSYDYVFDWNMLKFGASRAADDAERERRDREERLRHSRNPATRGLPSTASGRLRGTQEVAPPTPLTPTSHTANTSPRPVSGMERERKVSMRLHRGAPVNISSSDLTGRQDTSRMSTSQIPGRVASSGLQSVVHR

On to “2-(3-Chloro-4-fluorophenyl)-N^5-(3,3-difluorocyclobutyl)-7-isopropyl-6,7-dihydropyrazolo[1,5-a]pyrazine-3,5(4H)-dicarboxamide [Compound A123]”, for which the IC50 lay within 10 to 100 nM.
As to `NC(=O)c1c(-c2ccc(F)c(Cl)c2)nn2c1CN(C(=O)NC1CC(C(F)F)C1)CC2` (single isomer, unassigned) [Compound 252, 2-(3-Chloro-4-fluorophenyl)-N^5-(3-(difluoromethyl)cyclobutyl)-6,7-dihydropyrazolo[1,5-a]pyrazine-3,5(4H)-dicarboxamide], the IC50 is 0.01 to 10 nM.
With `NC(=O)c1c(-c2ccc(F)c(Cl)c2)nn2c1CN(C(=O)NC1CC(C(F)F)C1)CC2` (single isomer, unassigned) [Compound 253, 2-(3-Chloro-4-fluorophenyl)-N^5-(3-(difluoromethyl)cyclobutyl)-6,7-dihydropyrazolo[1,5-a]pyrazine-3,5(4H)-dicarboxamide], the IC50 was 0.01 to 10 nM.
For the molecule `CC(C)(C)NC(=O)N1Cc2c(C(N)=O)c(-c3ccc(F)c(Cl)c3)nn2C(CCO)C1` (single isomer, unassigned) [Compound A97, N^5-(tert-Butyl)-2-(3-chloro-4-fluorophenyl)-7-(2-hydroxyethyl)-6,7-dihydropyrazolo[1,5-a]pyrazine-3,5(4H)-dicarboxamide], the IC50 was 0.01 to 10 nM.
As to `CC(C)(C)NC(=O)N1Cc2c(C(N)=O)c(-c3ccc(F)c(Cl)c3)nn2C(C(F)(F)F)C1` (single isomer, unassigned) [Compound A128, N^5-(tert-Butyl)-2-(3-chloro-4-fluorophenyl)-7-(trifluoromethyl)-6,7-dihydropyrazolo[1,5-a]pyrazine-3,5(4H)-dicarboxamide], the IC50 was in the range of 0.01 to 10 nM.
For `Cc1cc(C)cc(-c2nn3c(c2C(N)=O)CN(C(=O)NC(C)(C)C)CC3)c1` [Compound 128, N^5-(tert-Butyl)-2-(3,5-dimethylphenyl)-6,7-dihydropyrazolo[1,5-a] pyrazine-3,5(4H)-dicarboxamide], the IC50 lay in the range of 10 to 100 nM.
Regarding `CC(F)(F)C(C)(C)NC(=O)N1CCn2nc(-c3cccc(Cl)c3)c(C(N)=O)c2C1` [Compound 174, 2-(3-Chlorophenyl)-N^5-(3,3-difluoro-2-methylbutan-2-yl)-6,7-dihydropyrazolo[1,5-a] pyrazine-3,5(4H)-dicarboxamide], the IC50 fell in the range of 0.01 to 10 nM.
Regarding `CO[C@H]1C[C@@H](NC(=O)N2CCn3nc(-c4ccc(F)c(Cl)c4)c(C(N)=O)c3C2)C1` [Compound 191, 2-(3-Chloro-4-fluorophenyl)-N^5-((1s,3s)-3-methoxycyclobutyl)-6,7-dihydropyrazolo[1,5-a] pyrazine-3,5(4H)-dicarboxamide], the IC50 was 0.01 to 10 nM.
With `CO[C@H]1C[C@H](NC(=O)N2CCn3nc(-c4ccc(F)c(Cl)c4)c(C(N)=O)c3C2)C1` [Compound 192, 2-(3-Chloro-4-fluorophenyl)-N^5-((1r,3r)-3-methoxycyclobutyl)-6,7-dihydropyrazolo[1,5-a] pyrazine-3,5(4H)-dicarboxamide], the IC50 lay in the range of 0.01 to 10 nM.
`NC(=O)c1c(-c2ccc(F)c(Cl)c2)nn2c1CN(C(=O)NCC1CCC(F)(F)CC1)CC2` [Compound 194, 2-(3-Chloro-4-fluorophenyl)-N^5-((4,4-difluorocyclohexyl)methyl)-6,7-dihydropyrazolo[1,5-a] pyrazine-3,5(4H)-dicarboxamide]: the IC50 lay within 0.01 to 10 nM.
Turning to `NC(=O)c1c(-c2ccc(F)c(Cl)c2)nn2c1CN(C(=O)N[C@@H]1C[C@@H]3[C@H](C1)C3(F)F)CC2` [Compound 197, 2-(3-Chloro-4-fluorophenyl)-N^5-((1R,3s,5S)-6,6-difluorobicyclo[3.1.0]hexan-3-yl)-6,7-dihydropyrazolo[1,5-a] pyrazine-3,5(4H)-dicarboxamide], the IC50 lay within 0.01 to 10 nM.
Take `NC(=O)c1c(-c2ccc(F)c(Cl)c2)nn2c1CN(C(=O)N[C@H]1C[C@@H]3[C@H](C1)C3(F)F)CC2` [Compound 198]: the IC50 is 0.01 to 10 nM.
As to `CC(F)(F)C(C)(C)NC(=O)N1CCn2nc(-c3ccc(Cl)c(Cl)c3)c(C(N)=O)c2C1` [Compound 201, 2-(3,4-Dichlorophenyl)-N^5-(3,3-difluoro-2-methylbutan-2-yl)-6,7-dihydropyrazolo[1,5-a] pyrazine-3,5(4H)-dicarboxamide], the IC50 lay within 0.01 to 10 nM.
Consider `NC(=O)c1c(-c2ccc(Cl)c(Cl)c2)nn2c1CN(C(=O)NC1CC3(CC3)C1)CC2` [Compound 207, 2-(3,4-Dichlorophenyl)-N^5-(spiro[2.3]hexan-5-yl)-6,7-dihydropyrazolo [1,5-a]pyrazine-3,5(4H)-dicarboxamide], for which the IC50 fell in the range of 0.01 to 10 nM.
Turning to `CC(CF)(CF)NC(=O)N1CCn2nc(-c3ccc(Cl)c(Cl)c3)c(C(N)=O)c2C1` [Compound 210, 2-(3,4-Dichlorophenyl)-N^5-(1,3-difluoro-2-methylpropan-2-yl)-6,7-dihydropyrazolo [1,5-a]pyrazine-3,5(4H)-dicarboxamide], the IC50 is 0.01 to 10 nM.
`CC(CF)(CF)NC(=O)N1CCn2nc(-c3cccc(Cl)c3)c(C(N)=O)c2C1` [Compound 211, 2-(3-Chlorophenyl)-N^5-(1,3-difluoro-2-methylpropan-2-yl)-6,7-dihydropyrazolo[1,5-a]pyrazine-3,5(4H)-dicarboxamide]: the IC50 fell in the range of 0.01 to 10 nM.
For `NC(=O)c1c(-c2ccc(F)c(Cl)c2)nn2c1CN(C(=O)NC1(COC(F)F)CCC1)CC2` [Compound 223, 2-(3-Chloro-4-fluorophenyl)-N^5-(1-((difluoromethoxy)methyl)cyclobutyl)-6,7-dihydropyrazolo[1,5-a]pyrazine-3,5(4H)-dicarboxamide], the IC50 fell in the range of 0.01 to 10 nM.
Turning to `CC(C)(NC(=O)N1CCn2nc(-c3ccc(Cl)c(Cl)c3)c(C(N)=O)c2C1)C1CC(F)(F)C1` [Compound 228, 2-(3,4-Dichlorophenyl)-N^5-(2-(3,3-difluorocyclobutyl)propan-2-yl)-6,7-dihydropyrazolo[1,5-a] pyrazine-3,5(4H)-dicarboxamide], the IC50 was 0.01 to 10 nM.
As for `CC1(CNC(=O)N2CCn3nc(-c4ccc(Cl)c(Cl)c4)c(C(N)=O)c3C2)CC(F)(F)C1` [Compound 231, 2-(3,4-Dichlorophenyl)-N^5-((3,3-difluoro-1-methylcyclobutyl)methyl)-6,7-dihydropyrazolo[1,5-a] pyrazine-3,5(4H)-dicarboxamide], the IC50 lay in the range of 0.01 to 10 nM.
For the molecule `NC(=O)c1c(-c2ccc(F)c(Cl)c2)nn2c1CN(C(=O)N[C@@H]1CC[C@@H]1C(F)F)CC2` [Compound 238, 2-(3-Chloro-4-fluorophenyl)-N^5-((1R,2S)-2-(difluoromethyl)cyclobutyl)-6,7-dihydropyrazolo[1,5-a]pyrazine-3,5(4H)-dicarboxamide], the IC50 was 0.01 to 10 nM.
Turning to `NC(=O)c1c(-c2ccc(Cl)c(Cl)c2)nn2c1CN(C(=O)N[C@@H]1CC[C@@H]1C(F)F)CC2` [Compound 240, 2-(3,4-Dichlorophenyl)-N^5-((1R,2S)-2-(difluoromethyl)cyclobutyl)-6,7-dihydropyrazolo[1,5-a] pyrazine-3,5(4H)-dicarboxamide], the IC50 lay in the range of 0.01 to 10 nM.
As to `NC(=O)c1c(-c2cccc(Cl)c2)nn2c1CN(C(=O)N[C@@H]1CC[C@H]1COC(F)F)CC2` [Compound 242, 2-(3-Chlorophenyl)-N^5-((1R,2R)-2-((difluoromethoxy)methyl)cyclobutyl)-6,7-dihydropyrazolo[1,5-a] pyrazine-3,5(4H)-dicarboxamide], the IC50 was in the range of 0.01 to 10 nM.
Take `NC(=O)c1c(-c2cccc(Cl)c2)nn2c1CN(C(=O)NC1CC(C(F)F)C1)CC2` (centres unmarked) [Compound 256, 2-(3-Chlorophenyl)-N^5-(3-(difluoromethyl)cyclobutyl)-6,7-dihydropyrazolo[1,5-a]pyrazine-3,5(4H)-dicarboxamide]: the IC50 lay within 0.01 to 10 nM.
Turning to `NC(=O)c1c(-c2cccc(Cl)c2)nn2c1CN(C(=O)NC1CC(C(F)F)C1)CC2` (centres unmarked) [Compound 257, 2-(3-Chlorophenyl)-N^5-(3-(difluoromethyl)cyclobutyl)-6,7-dihydropyrazolo[1,5-a]pyrazine-3,5(4H)-dicarboxamide], the IC50 was in the range of 0.01 to 10 nM.
As to `N#Cc1ccc(O[C@H]2C[C@H](NC(=O)N3CCn4nc(-c5ccc(Cl)c(Cl)c5)c(C(N)=O)c4C3)C2)cc1` [Compound 268, N^5-((1r,3r)-3-(4-Cyanophenoxy)cyclobutyl)-2-(3,4-dichlorophenyl)-6,7-dihydropyrazolo[1,5-a] pyrazine-3,5(4H)-dicarboxamide], the IC50 was 0.01 to 10 nM.
As to `N#Cc1ccc([C@H]2C[C@@H](NC(=O)N3CCn4nc(-c5ccc(F)c(Cl)c5)c(C(N)=O)c4C3)C2)cc1` [Compound 282, 2-(3-Chloro-4-fluorophenyl)-N^5-((1s,3s)-3-(4-cyanophenyl)cyclobutyl)-6,7-dihydropyrazolo[1,5-a]pyrazine-3,5(4H)-dicarboxamide], the IC50 was in the range of 0.01 to 10 nM.
Take `CCC1(NC(=O)N2CCn3nc(-c4ccc(Cl)c(Cl)c4)c(C(N)=O)c3C2)CC(F)(F)C1` [Compound 301, 2-(3,4-Dichlorophenyl)-N^5-(1-ethyl-3,3-difluorocyclobutyl)-6,7-dihydropyrazolo[1,5-a]pyrazine-3,5(4H)-dicarboxamide]: the IC50 was 0.01 to 10 nM.
As for `CC(C)(O)[C@H](F)CNC(=O)N1CCn2nc(-c3cccc(Cl)c3)c(C(N)=O)c2C1` [Compound 337, (R)-2-(3-Chlorophenyl)-N^5-(2-fluoro-3-hydroxy-3-methylbutyl)-6,7-dihydropyrazolo[1,5-a]pyrazine-3,5(4H)-dicarboxamide], the IC50 is 0.01 to 10 nM.
Turning to `CC(C)(C)NC(=O)N1Cc2c(C(N)=O)c(-c3cccc(Cl)c3)nn2C(CO)C1` (centres unmarked) [Compound A2, N^5-(tert-Butyl)-2-(3-chlorophenyl)-7-(hydroxymethyl)-6,7-dihydropyrazolo[1,5-a] pyrazine-3,5(4H)-dicarboxamide], the IC50 fell in the range of 0.01 to 10 nM.

Values taken from patent US9273058B2 (BRISTOL-MYERS SQUIBB COMPANY, priority 2013, dated 2016).
